Data reported in publication PMC12067741, “Inhibition of SOD1 trimerization is a novel drug target for ALS disease” (Translational Neurodegeneration, 2025).
“Also recorded” adds a separate entry of the source.

How the values were obtained:
MT-SOD1 protein uptake = experiment: SOD1 recombinant protein uptake into neuronal cells; format: cell-based
Experimental: For monitoring the localization of SOD1 recombinant proteins, SOD1-Halo proteins were added in neuronal cultures for 2 h and then the cells were incubated with the cell-permeable HaloTag-fluorscent ligands (diAcFAM) for 30 min. After incubation, cells were washed with serum-free culture medium three times and incubated in serum-containing culture medium in a CO2 incubator for 30 min to wash out unbound ligand. Fluorescent images of live cells were obtained using a commercial Tomocube HT-2H holotomography system (Daejeon, Republic of Korea).
We hypothesized that PRG-A-04, which targets trimeric SOD1, would inhibit SOD1 protein uptake. MT-SOD1 proteins were incubated with PRG-A-04 in vitro, and then cells were treated with the mixture. The MT-SOD1 protein uptake was reduced by incubation with PRG-A-04, as was SOD1 oligomerization (Fig. 3f, g). […] However, whether neuron-specific receptors on synapses, physiological conditions (neuronal cellular stress such as ion deficiency, environmental conditions such as hypoxia) and other ALS-related genetic causes (TDP-43, FUS, etc.) are essential for SOD1 uptake requires further study.
Fig. S3 SOD1 protein uptake into the cells through endocytosis. a, The uptake of SOD1 proteins was achieved by endocytosis. SH-SY5Y cells were treated with SOD1 recombinant proteins and endocytosis inhibitor (Dynasore; […]) for 6hr. After incubations, cells were harvested with RIPA and separated by SDS-PAGE. S.E: short exposure, L.E: long exposure. b, The recombinant MT-SOD1 protein is located intracellular space in neuron cells. SOD1-Halo proteins (3 μg/ml) were treated in neuron cells for 2 hr and incubated with HaloTag-fluorscent ligands (cellpermeable ligands; diAcFAM) for 30 min. After incubation, cells were washed with fresh culture medium three times and.
Incubate cells in complete culture medium at CO2 incubator for 30 min to wash unbound ligand. The fluorescence images of live cells were obtained using a commercial holotomography (HT-2H). White arrows indicate the intensity of SOD1. BF; Bright field, Scale bar; […].

Plasma stability [1] = format: in vitro ADME; details: beagle dog plasma, after 120 min of incubation
[2] = system: WT-SOD1 (Azurite, mCherry2) and MT (G93A)-SOD1 (GFP); experiment: Co-inclusion of three colour variants of SOD1 in SK-N-SH cells; format: cell-based; details: PRG-A-04 5 μmol/L, 24 h
Experimental: Cells with SOD1 aggregation were counted in the fluorescent images. Depending on the intensity of SOD1, cells with SOD1 aggregates were counted in randomly selected fields and quantified as a percentage to the total cells counted. In addition, to calculate the colocalization of the three colors of SOD1, we counted the cells where the three colored images overlapped at a point of high intensity. Cell counting was performed by three independent observers, who were blinded to the transfection or chemical treatment group.
Fig. 2 PRG-A-04 suppresses SOD1 aggregation through targeting trimeric SOD1. a-b SOD1 trimer destabilizer inhibited MT-SOD1 aggregation. (a) SOD1 (GFP) expression was observed under fluorescence microscope (white arrows; strong intensity of SOD1). Scale bar, 10 μm. EV, empty vector. (b) SOD1 inclusion-positive cells (white arrows; strong intensity of SOD1) were counted and the percentages are shown as mean ± SD. c PRG-A-04 reduced SOD1 oligomerization induced by SOD1 trimer stabilizer (G147P). d-g PRG-A-04 directly bound to the mutant form of SOD1. […] (g) For quantitative analysis, the number of PRG-A-04 molecules per 100 SOD1 molecules was counted. […] (i) Cells with WT and MT-SOD1 co-inclusions were counted and the percentages are shown as mean ± SD. For cell counting, five fluorescence images were randomly selected. […]

Plasma stability [3] = format: in vitro ADME; details: cynomolgus monkey plasma, after 120 min of incubation
CYP 1A2 = CYP 1A2 (Homo sapiens, UniProt P05177); experiment: CYP inhibition (direct); format: in vitro ADME; details: CYP 1A2, direct inhibition
Sequence of CYP 1A2 (P05177 whole entry): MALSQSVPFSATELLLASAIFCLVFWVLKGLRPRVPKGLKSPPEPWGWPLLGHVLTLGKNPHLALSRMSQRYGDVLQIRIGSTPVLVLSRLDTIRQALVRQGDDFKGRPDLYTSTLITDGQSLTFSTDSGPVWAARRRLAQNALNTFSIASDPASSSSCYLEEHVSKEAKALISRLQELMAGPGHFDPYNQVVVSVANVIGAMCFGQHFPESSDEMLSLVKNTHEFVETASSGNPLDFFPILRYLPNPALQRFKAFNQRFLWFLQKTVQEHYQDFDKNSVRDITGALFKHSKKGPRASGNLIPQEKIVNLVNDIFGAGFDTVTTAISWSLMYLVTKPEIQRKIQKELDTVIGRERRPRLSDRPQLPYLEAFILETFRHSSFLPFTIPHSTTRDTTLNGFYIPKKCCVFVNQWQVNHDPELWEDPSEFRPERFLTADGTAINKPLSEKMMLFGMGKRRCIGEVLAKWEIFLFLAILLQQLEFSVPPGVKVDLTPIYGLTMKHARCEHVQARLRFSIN
From the text: Fig. S8. Preclinical data of PRG-A-04 a Plasma protein binding b CYP inhibition(direct) […]
d Mouse Brain Tissue penetration
For the convenience of calculation, […]

COc1cc(C=CCOC2Cc3cc4ccc(=O)oc4cc3OC2(C)C)ccc1[N+](=O)[O-] (stereo not drawn) [PRG-A-04]
effect on MT-SOD1 protein uptake (MT-SOD1 protein uptake; MT-SOD1 protein pre-incubated with PRG-A-04 in vitro, then added to neuronal cells): selectively inhibited MT-SOD1 uptake; also recorded: reduced | effect on SOD1 oligomerization induced by SOD1 protein uptake (MT-SOD1 protein uptake; neuronal cells): reduced SOD1 oligomerization induced by SOD1 protein uptake | stability in plasma (Plasma stability [1]): stable | co-inclusion of WT and MT-SOD1 [2]: disappeared | stability in plasma (Plasma stability [3]): stable | IC50 (CYP 1A2): > 10 µM
